# System: rat pituitary cells
# Assay: in vitro release of growth hormone (ir GH by radioimmunoassay) from cultured rat pituitary cells, side-by-side with hGRF(1-44)-NH2
# Format: cell-based
# Protocol: To determine the effectiveness of the peptide to promote the release of growth hormone, in vitro assays are carried out using synthetic hGRF(1-44)-NH2 in side-by-side comparison with equimolar concentrations of the extracted and purified bGRF(1-44) of Example II. hGRF thus serves as a GRF Reference Standard having a known effectiveness to promote the release of growth hormone from rat pituitary cells. Cultures are used which include cells of rat pituitary glands removed some four to five days previously. Both cultures of a defined standard medium and cultures which are considered optimal for the secretion of growth hormone are used for the comparative testing, in the general manner described in Brazeau, et al. Regulatory Peptides, 1, 255, 1981. Incubation with the substance to be tested is carried out for 3 to 4 hours, and aliquots of the culture medium are removed and processed to measure their contents in immunoreactive GH(ir GH) by a well-characterized radioimmunoassay.
# [1] = equimolar ratios, rat pituitary cell cultures, incubation 3 to 4 hours
smiles,measurement,setting,value
CC[C@H](C)[C@H](NC(=O)[C@H](C)NC(=O)[C@H](CC(=O)O)NC(=O)[C@H](C)NC(=O)[C@@H](N)Cc1ccc(O)cc1)C(=O)N[C@@H](Cc1ccccc1)C(=O)N[C@H](C(=O)N[C@@H](CC(N)=O)C(=O)N[C@@H](CO)C(=O)N[C@@H](Cc1ccc(O)cc1)C(=O)N[C@@H](CCCNC(=N)N)C(=O)N[C@@H](CCCCN)C(=O)N[C@H](C(=O)N[C@@H](CC(C)C)C(=O)NCC(=O)N[C@@H](CCC(N)=O)C(=O)N[C@@H](CC(C)C)C(=O)N[C@@H](CO)C(=O)N[C@@H](C)C(=O)N[C@@H](CCCNC(=N)N)C(=O)N[C@@H](CCCCN)C(=O)N[C@@H](CC(C)C)C(=O)N[C@@H](CC(C)C)C(=O)N[C@@H](CCC(N)=O)C(=O)N[C@@H](CC(=O)O)C(=O)N[C@H](C(=O)N[C@@H](CCSC)C(=O)N[C@@H](CC(N)=O)C(=O)N[C@@H](CCCNC(=N)N)C(=O)N[C@@H](CCC(N)=O)C(=O)N[C@@H](CCC(N)=O)C(=O)NCC(=O)N[C@@H](CCC(=O)O)C(=O)N[C@@H](CCCNC(=N)N)C(=O)N[C@@H](CC(N)=O)C(=O)N[C@@H](CCC(N)=O)C(=O)N[C@@H](CCC(=O)O)C(=O)N[C@@H](CCC(N)=O)C(=O)NCC(=O)N[C@@H](C)C(=O)N[C@@H](CCCCN)C(=O)N[C@H](C(=O)N[C@@H](CCCNC(=N)N)C(=O)N[C@@H](CC(C)C)C(N)=O)C(C)C)[C@@H](C)CC)C(C)C)[C@@H](C)O [bGRF(1-44)],intrinsic biological activity (GH release) compared with synthetic hGRF(1-44)-NH2,[1],full intrinsic biological activity
same,potency (GH release) compared with synthetic hGRF(1-44)-NH2,[1],close to the same potency
same,intrinsic activity relative to hGRF(1-44)-NH2,multiple doses factorial design experiments,same intrinsic activity
same,specific activity relative to hGRF(1-44)-NH2,"multiple doses factorial design experiments, % of hGRF(1-44)-NH2, confidence limits of 54-93%",about 70%
